The text below walks through data of patent US7767681B2, “2-Carbamide-4-phenylthiazole derivatives, preparation thereof and therapeutic use thereof” (sanofi-aventis, priority 2004, dated 2010).

One data set concerns the target T1, human CCR2b receptor (Homo sapiens, UniProt P41597).
T1 sequence (P41597 1-360 isoform P41597-2): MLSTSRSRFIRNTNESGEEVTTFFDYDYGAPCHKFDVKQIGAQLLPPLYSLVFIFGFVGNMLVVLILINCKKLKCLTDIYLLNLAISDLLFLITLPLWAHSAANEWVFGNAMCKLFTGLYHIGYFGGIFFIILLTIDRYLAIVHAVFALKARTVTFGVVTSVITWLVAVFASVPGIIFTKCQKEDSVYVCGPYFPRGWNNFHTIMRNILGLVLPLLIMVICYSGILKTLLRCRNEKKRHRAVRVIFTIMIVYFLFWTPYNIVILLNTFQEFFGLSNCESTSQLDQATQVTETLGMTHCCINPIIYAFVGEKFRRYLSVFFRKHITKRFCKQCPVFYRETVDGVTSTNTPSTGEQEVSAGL
The experiment in a line: Inhibitory activity on cells expressing the human CCR2b receptor. The class given is cell-based. On the procedure:
The inhibitory activity of the compounds according to the invention on cells expressing the human CCR2b receptor was measured.

Data set [1] has as its system human THP-1 monocyte cells. The experiment in a line: Inhibition of chemotaxis on human THP-1 monocyte cells. Type of data set: cell-based. As to conditions: read-out: IC50 inhibition of chemotaxis (hMCP-1). On the procedure: The inhibition of chemotaxis was also measured on human THP-1 monocyte cells (sold by DSMZ—Germany), using a technique adapted from that described by A. Albini et al., Cancer Res., 1987, 47, 3239-3245.
The inhibition of chemotaxis by the compounds according to the invention is a sign of their antagonistic activity on chemokine receptors, and in particular the CCR2b receptor.

Another data set has as its system HIV-1 Bal virus. The experiment in a line: Inhibitory activity on PBMCs infected with HIV-1 Bal (reverse transcriptase in supernatant). Type of data set: cell-based. As to conditions: compounds in culture medium for 5 days, read-out: IC50 viral replication (amount of reverse transcriptase in the supernatant). On the procedure:
The inhibitory activity of the compounds according to the invention was also measured on PBMCs (peripheral blood mononuclear cells) infected with the HIV-1 Bal virus, according to a technique adapted from that described by V. Dolle et al., J. Med. Chem., 2000, 43, 3949, 3962. According to this technique, the PBMCs are infected with HIV-1 Bal and the compounds to be tested are then added to the culture medium for 5 days. At the end of this exposure, the amount of reverse transcriptase in the supernatant is measured, which correlates with the level of viral replication in the cells.

[2] abbreviates: read-out: IC50 of the activity of the CCR2b receptor.

Counter-ions that a name gives are not always drawn. Like-named read-outs stand apart in the source and are kept apart here. Some results are limits rather than exact numbers.

Consider “hMCP-1: human monocyte chemotactic protein, CC chemokine, natural agonist of the CCR2b receptor [reference compound]”, for which the IC50 with human CCR2b receptor (read-out: IC50 of the activity of the CCR2b receptor (natural agonist hMCP-1)) was determined as 0.57 nM; in data set [1], 6 nM.

For `CCCc1ccc(OC)c(-c2csc(NC(=O)N3CCN(CCCN(CC)CC)CC3)n2)c1` (as salt: HCl) [Compound No. 14], the melting point amounted to 145 °C.

As to `CCCc1ccc(OC)c(-c2csc(NC(=O)N3CCN(CCCN(CC)CC)CC3)n2)c1` [Compound No. 14], the IC50 at human CCR2b receptor (setting [2]) amounted to 3.3 nM.

As for `Cc1cn([C@H]2C[C@H](N=[N+]=[N-])[C@@H](CO)O2)c(=O)[nH]c1=O` [AZT], the IC50 in the data set with HIV-1 Bal virus was below 1000 nM.

`COc1ccc(C2CCCC2)cc1-c1csc(NC(=O)N2CCN(CC3CCN(C)CC3)CC2)n1` [Compound No. 55] returned a melting point of 102 °C. For the same molecule, on human CCR2b receptor (setting [2]), the IC50 was found to be 14 nM.
